According to patent US8642657B2 (Gruenenthal GmbH, priority 2003, dated 2014):
pKi: −log10 of the molar value.

What was measured:
rat VR1 [1] = molecular target: T1, rat VR1 (Rattus norvegicus, UniProt O35433); test: 45Ca2+-uptake assay in CHO/VR1 cells, antagonism of capsaicin-stimulated uptake; assay type: cell-based; settings: 45Ca2+ uptake stimulated by 50 nM capsaicin
T1 construct: expressed in transfected cells
Protocol: Initial stocks were dissolved in DMSO. For the binding assays, compounds were diluted in with DPBS with Ca^2+ and Mg^2+ and 0.25 mg/mL bovine serum albumin. For the calcium uptake assays, compounds were diluted in DMEM with 0.25 mg/mL bovine serum albumin.
Molecules were characterized to determine whether they were full agonists, partial agonists, or antagonists. For studies of ^45Ca^2+ uptake by CHO/VR1 cells (Tet-off cells), the cells were plated in 24-well plates to yield a cell density 20-40% of that required to produce confluence. The next day the medium was changed to remove the tetracycline and induce VR1 expression. Experiments were performed approximately 36-40 hours after induction. For ^45Ca^2+ uptake assay, cells were incubated for 5 min at 37° C. in a total volume of 400 μL of serum free DMEM (containing 1.8 mM CaCl2) in the presence of 0.25 mg/mL BSA (Sigma), 1 μCi/mL ^45Ca^2+ (5-30 Ci/g from ICN, CA), and increasing concentrations of the compound to be tested. Immediately after the incubation, extracellular ^45Ca^2+ was removed by washing the cells three times with cold DPBS (containing 1.8 mM CaCl2). Then 400 μl RIPA buffer (50 mM Tris pH 7.4; 150 mM NaCl; 1% Triton X-100; 0.1% SDS; 1% sodium deoxycholate) was added to each well in order to lyse the cells. Plates were shaken slowly for 20 min; then 306 μL of cell lysate was transferred from each well into a scintillation vial and radioactivity was determined by scintillation counting. For each data point in each experiment, four wells were assayed. Data from these experiments were analyzed by computer fit to the Hill equation. At least 3 separate experiments were carried out for each compound. In order to determine antagonist activity, studies were performed in exactly the same fashion with the exception that 50 nM capsaicin was added to the assay mixture to stimulate ^45Ca^2+ uptake.

rat VR1 [2] = molecular target: T1, rat VR1; test: [3H]resiniferatoxin (RTX) competition binding assay, VR1-transfected CHO cells; settings: for Ki: competition with [3H]RTX, rat VR1 in CHO cells, read-out: Ki (nM) Binding Affinity
Method in brief: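 Competition with [3H]RTX (50-100 pM) ran 60 min at 37° C using whole VR1-induced CHO cells in BSA-containing DPBS, nonspecific defined by 100 nM cold RTX. After centrifugation, pellet radioactivity counted by scintillation; Hill fits gave Ki and cooperativity.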

T1 sequence (O35433 whole entry): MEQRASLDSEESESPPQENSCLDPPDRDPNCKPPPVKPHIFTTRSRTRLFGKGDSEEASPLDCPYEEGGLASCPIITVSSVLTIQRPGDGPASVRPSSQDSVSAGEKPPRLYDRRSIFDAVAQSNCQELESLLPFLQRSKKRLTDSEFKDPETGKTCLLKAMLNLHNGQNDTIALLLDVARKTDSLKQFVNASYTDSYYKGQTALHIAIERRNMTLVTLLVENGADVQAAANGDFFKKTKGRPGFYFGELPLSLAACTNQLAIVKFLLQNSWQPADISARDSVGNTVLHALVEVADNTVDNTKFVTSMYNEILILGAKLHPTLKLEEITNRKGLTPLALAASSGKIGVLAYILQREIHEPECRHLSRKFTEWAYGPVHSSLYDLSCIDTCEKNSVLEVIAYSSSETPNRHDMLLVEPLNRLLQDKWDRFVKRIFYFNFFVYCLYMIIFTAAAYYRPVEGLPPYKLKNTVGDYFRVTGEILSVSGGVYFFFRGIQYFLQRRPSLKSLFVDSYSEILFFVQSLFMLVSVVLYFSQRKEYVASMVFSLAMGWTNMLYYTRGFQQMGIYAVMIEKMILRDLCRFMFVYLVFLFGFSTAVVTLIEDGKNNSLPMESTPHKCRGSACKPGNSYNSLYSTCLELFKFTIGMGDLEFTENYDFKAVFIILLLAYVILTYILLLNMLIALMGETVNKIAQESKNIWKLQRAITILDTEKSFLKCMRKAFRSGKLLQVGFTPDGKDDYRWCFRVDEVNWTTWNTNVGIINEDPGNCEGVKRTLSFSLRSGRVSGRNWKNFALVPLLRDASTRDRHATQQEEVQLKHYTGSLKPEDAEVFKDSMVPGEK

Row | Compound | Ki (rat VR1 [1]) [nM] | melting point [°C] | Ki (rat VR1 [2]) [nM] | pKi (rat VR1 [2])
1 | C[C@H](C(=O)NC[C@H](COC(=O)C(C)(C)C)Cc1ccc(C(C)(C)C)cc1)c1ccc(NS(C)(=O)=O)c(Cl)c1 [6-13, N-[(2R)-2-(4-t-Butylbenzyl)-3-(pivaloyloxy)propyl]-(2S)-2-[3-chloro-4-(methylsulfonylamino)phenyl]propionamide] | 5.23 | 61 to 63 | 1.83 | –
2 | CC(C(=O)NCc1ccc(Cl)c(Cl)c1)c1ccc(NS(C)(=O)=O)c(F)c1 (stereo not drawn) [4-4, N-(3,4-Dichlorobenzyl)-2-[3-fluoro-4-(methylsulfonylamino)phenyl]propionamide] | 115 | 130 to 133 | 199 | –
3 | Cc1ccc(CC(CNC(=O)C(C)c2ccc(NS(C)(=O)=O)c(F)c2)COC(=O)C(C)(C)C)cc1C (stereo not drawn) [5-3, 2-[3-Fluoro-4-(methylsulfonylamino)phenyl]-N-[2-(3,4-dimethylbenzyl)-3-pivaloyloxypropyl]propionamide] | 10.8 | 46 to 48 | 33.1 | –
4 | CC(C(=O)NCCc1ccc(C(C)(C)C)cc1)c1ccc(NS(C)(=O)=O)c(F)c1 (stereo not drawn) [4-14, N-[2-(4-t-Butylphenyl)ethyl]-2-[3-fluoro-4-(methylsulfonylamino)phenyl]propionamide] | 42.6 | 124 to 126 | 553 | –
5 | C[C@H](C(=O)NC[C@H](COC(=O)C(C)(C)C)Cc1ccccc1)c1ccc(NS(C)(=O)=O)c(F)c1 [6-5, N-[(2R)-2-Benzyl-3-(pivaloyloxy)propyl]-(2S)-2-[3-fluoro-4-(methylsulfonylamino)phenyl]propionamide] | 8.55 | 40 to 42 | 43.4 | –
6 | CC(C(=O)NCc1cccc2ccccc12)c1ccc(NS(C)(=O)=O)c(F)c1 (stereo not drawn) [4-12, N-(1-Naphthylmethyl)-2-[3-fluoro-4-(methylsulfonylamino)phenyl]propionamide] | 239 | 159 to 161 | 959 | –
7 | CC(C(=O)NCc1ccc(Cl)c(Cl)c1)c1ccc(NS(C)(=O)=O)c(Br)c1 (stereo not drawn) [4-6, N-(3,4-Dichlorobenzyl)-2-[3-bromo-4-(methylsulfonylamino)phenyl]propionamide] | 89.6 | 161 to 162 | – | 6.65
8 | CC(C)(C)c1ccc(CNC(=O)C(C)(C)c2ccc(NS(C)(=O)=O)c(F)c2)cc1 [9-8, N-(4-tert-Butylbenzyl)-2-[3-fluoro-4-(methylsulfonylamino)phenyl]-2-methylpropionamide] | 467 | 48 to 51 | 1070 | –
9 | CC(C(=O)NCc1ccc(C(C)(C)C)cc1)c1ccc(NS(C)(=O)=O)c(F)c1 (stereo not drawn) [1-51, N-(4-tert-Butylbenzyl)-2-[3-fluoro-4-(methylsulfonylamino)phenyl]propionamide] | 5.47 | 52 to 54 | – | 7.23
10 | CC(NC(=O)CCc1ccc(C(C)(C)C)cc1)c1ccc(NS(C)(=O)=O)c(F)c1 (stereo not drawn) [24-2, N-{1-[3-Fluoro-4-(methylsulfonylamino)phenyl]ethyl}-3-(4-tert-butylphenyl)propanamide] | 103 | 152 to 154 | 376 | –
11 | Cc1ccc(C(C)CC(=O)NC(C)c2ccc(NS(C)(=O)=O)c(F)c2)cc1C (stereo not drawn) [24-8, N-{1-[3-Fluoro-4-(methylsulfonylamino)phenyl]ethyl}-3-(3,4-dimethylphenyl)butanamide] | 988 | 152 to 154 | – | 5.45
12 | COc1cc(C2(C(=O)NCc3ccc(C(C)(C)C)cc3)CC2)ccc1NS(C)(=O)=O [12-9, N-(4-tert-Butylbenzyl)-1-[3-methoxy-4-(methylsulfonylamino)phenyl]cyclopropanecarboxamide] | 2250 | 200 to 203 | 745 | –
13 | CC(C(=O)NCc1ccc(C(C)(C)C)cc1)c1ccc(NS(C)(=O)=O)cc1F (stereo not drawn) [1-66, N-(4-tert-Butylbenzyl)-2-[2-fluoro-4-(methylsulfonylamino)phenyl]propionamide] | 120 | 111 to 113 | 358 | –
14 | CC(C(=O)NCc1ccc(C(C)(C)C)cc1)c1ccc(NS(C)(=O)=O)c(Cl)c1 (stereo not drawn) [1-52, N-(4-tert-Butylbenzyl)-2-[3-chloro-4-(methylsulfonylamino)phenyl]propionamide] | 29.5 | 126 to 129 | 30.7 | –
15 | Cc1ccc(CC(CNC(=O)C2(c3ccc(NS(C)(=O)=O)c(F)c3)CC2)COC(=O)C(C)(C)C)cc1C (stereo not drawn) [12-2, N-[2-(3,4-Dimethylbenzyl)-3-pivaloyloxypropyl]-1-[3-fluoro-4-(methylsulfonylamino)phenyl]cyclopropanecarboxamide] | 567 | 55 to 56 | 1580 | –
16 | CC(C(=O)NCc1ccc(C(C)(C)C)cc1)c1ccc(NS(C)(=O)=O)c(I)c1 (stereo not drawn) [1-54, N-(4-tert-Butylbenzyl)-2-[3-iodo-4-(methylsulfonylamino)phenyl]propionamide] | 29.9 | 71 | 23.3 | –
17 | CC(C(=O)NCc1ccc(C(C)(C)C)cc1)c1ccc(NS(C)(=O)=O)c(Br)c1 (stereo not drawn) [1-53, N-(4-tert-Butylbenzyl)-2-[3-bromo-4-(methylsulfonylamino)phenyl]propionamide] | 24.9 | 66 to 67 | 7.41 | –
18 | CC(NC(=S)NCc1ccc(C(C)(C)C)cc1)c1ccc(NS(C)(=O)=O)c(F)c1 (stereo not drawn) [15-2, N-(4-t-Butylbenzyl)-N′-{1-[3-fluoro-4-(methylsulfonylamino)phenyl]ethyl}thiourea] | 9.16 | 165 | 54 | –
19 | Cc1ccc(CC(CNC(=S)NC(C)c2ccc(NS(C)(=O)=O)cc2)COC(=O)C(C)(C)C)cc1C (stereo not drawn) [18-5, N-[2-(3,4-Dimethylbenzyl)-3-(pivaloyloxy)propyl]-N′-{1-[4-(methylsulfonylamino)phenyl]ethyl}thiourea] | 25.9 | 77 | – | 7.43
20 | C[C@H](C(=O)NC[C@@H](COC(=O)C(C)(C)C)Cc1ccc(C(C)(C)C)cc1)c1ccc(NS(C)(=O)=O)c(F)c1 [6-10, N-[(2S)-2-(4-t-Butylbenzyl)-3-(pivaloyloxy)propyl]-(2S)-2-[3-fluoro-4-(methylsulfonylamino)phenyl]propionamide] | 10.9 | 43 to 45 | – | 8.18
21 | CC(C(=O)NCc1ccc(C(C)(C)C)cc1)c1ccc(NS(C)(=O)=O)c(C#N)c1 (stereo not drawn) [1-56, N-(4-tert-Butylbenzyl)-2-[3-cyano-4-(methylsulfonylamino)phenyl]propionamide] | 467 | 102 to 105 | 344 | –
22 | CC(C)(C)c1ccc(CNC(=S)NC(C)(C)c2ccc(NS(C)(=O)=O)c(F)c2)cc1 [21-8, N-(4-t-Butylbenzyl)-N′-{1-methyl-1-[3-fluoro-4-(methylsulfonylamino)phenyl]ethyl}thiourea] | 983 | 83 to 85 | 7740 | –
23 | CC(C(=O)NCc1ccc(Cl)cc1)c1ccc(NS(C)(=O)=O)c(Cl)c1 (stereo not drawn) [4-2, N-(4-Chlorobenzyl)-2-[3-chloro-4-(methylsulfonylamino)phenyl]propionamide] | 447 | 134 to 135 | – | 6.14
24 | COC(=O)c1cc(C(C)NC(=S)NCc2ccc(C(C)(C)C)cc2)ccc1NS(C)(=O)=O (stereo not drawn) [15-4, N-(4-t-Butylbenzyl)-N′-{1-[3-(methoxycarbonyl)-4-(methylsulfonylamino)phenyl]ethyl}thiourea] | 65.8 | 132 to 135 | – | 6.79
25 | CC(C(=O)NCc1ccc(Cl)c(Cl)c1)c1ccc(NS(C)(=O)=O)cc1 (stereo not drawn) [2-9, N-(3,4-Dichlorobenzyl)-2-[4-(methylsulfonylamino)phenyl]propionamide] | 253 | 130 | – | 5.78
26 | CC(C(=O)NCC(COC(=O)C(C)(C)C)Cc1ccc(C(C)(C)C)cc1)c1ccc(NS(C)(=O)=O)c(Cl)c1 (stereo not drawn) [5-8, N-[2-(4-tert-Butylbenzyl)-3-pivaloyloxypropyl]-2-[3-chloro-4-(methylsulfonylamino)phenyl]propionamide] | 12.3 | 142 to 144 | 3.62 | –
27 | CC(C)(C)c1ccc(CNC(=O)C2(c3ccc(NS(C)(=O)=O)cc3)CC2)cc1 [12-7, N-(4-tert-Butylbenzyl)-1-[4-(methylsulfonylamino)phenyl]cyclopropanecarboxamide] | 1760 | 200 to 203 | 608 | –
